pIC50: −log10 of the molar value. Like-named read-outs stand apart in the source and are kept apart here.
How the values were obtained:
Ramos RA1 B cells = assay: Ramos FLIPR Assay (intracellular calcium flux, anti-human IgM stimulated); assay type: cell-based; conditions: for Potency Difference Ramos: ratio of IC50 value for the Comparative Example to that for the corresponding Example: Comparative Example (stereoisomer) IC50 / Example IC50
Method: Ramos FLIPR Assay […] Dye-loaded cells were pelleted (Beckmann GS-CKR, 1200 rpm, room temperature, 5 min) and resuspended at room temperature in RPMI minus phenol red with 50 mM HEPES and 10% FBS to a density of 1×10^6 cells/mL. 150 μL aliquots (150,000 cells/well) were plated into 96 well poly-D-lysine coated assay plates (BD 35 4640) and briefly centrifuged (Beckmann GS-CKR 800 rpm, 5 min, without brake). Next, 50 μL compound dilutions in 0.4% DMSO/RPMI minus phenol red+50 mM HEPES+10% FBS were added to the wells and the plate was incubated at room temperature in the dark for 1 hour. The assay plate was briefly centrifuged as above prior to measuring calcium levels. Using the […] (Molecular Devices), cells were stimulated by adding goat anti-human IgM (Invitrogen AHI0601) to 2.5 μg/mL. Changes in intracellular calcium concentrations were measured for 180 seconds and percent inhibition was determined relative to peak calcium levels seen in the presence of stimulation only. The Ramos assay measures the ability of a compound to move through the cell membrane into the cell interior. A lower IC50 value indicates a greater ability to move into the cell interior.

human recombinant Btk = human recombinant Btk (Homo sapiens (Human), UniProt Q06187); assay: Human Recombinant Btk Enzyme Assay; assay type: biochemical; conditions: for Potency Difference Btk: ratio of IC50 value for the Comparative Example to that for the corresponding Example: Comparative Example (stereoisomer) IC50 / Example IC50
human recombinant Btk, sequence (Q06187 whole entry): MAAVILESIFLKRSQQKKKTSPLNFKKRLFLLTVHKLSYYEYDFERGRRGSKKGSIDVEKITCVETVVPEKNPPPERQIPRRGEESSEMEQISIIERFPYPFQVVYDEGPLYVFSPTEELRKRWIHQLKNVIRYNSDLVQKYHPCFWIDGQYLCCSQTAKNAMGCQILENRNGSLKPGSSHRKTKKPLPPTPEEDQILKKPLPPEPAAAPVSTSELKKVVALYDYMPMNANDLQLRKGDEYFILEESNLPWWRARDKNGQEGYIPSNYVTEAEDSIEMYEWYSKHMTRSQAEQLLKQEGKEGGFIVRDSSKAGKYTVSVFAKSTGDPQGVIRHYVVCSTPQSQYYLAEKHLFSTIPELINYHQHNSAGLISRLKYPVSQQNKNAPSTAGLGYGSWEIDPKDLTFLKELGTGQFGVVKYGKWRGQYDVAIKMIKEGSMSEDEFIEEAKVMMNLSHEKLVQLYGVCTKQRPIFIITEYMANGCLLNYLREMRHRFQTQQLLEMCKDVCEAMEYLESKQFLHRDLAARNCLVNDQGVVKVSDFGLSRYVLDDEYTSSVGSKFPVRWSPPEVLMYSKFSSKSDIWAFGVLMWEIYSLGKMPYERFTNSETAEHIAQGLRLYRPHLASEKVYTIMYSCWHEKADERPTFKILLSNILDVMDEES
Method: Human Recombinant Btk Enzyme Assay
To V-bottom 384-well plates were added test compounds, human recombinant Btk (1 nM, Invitrogen Corporation), fluoresceinated peptide (1.5 μM), ATP (20 μM), and assay buffer (20 mM HEPES pH 7.4, 10 mM MgCl2, 0.015% Brij 35 surfactant and 4 mM DTT in 1.6% DMSO), with a final volume of 30 μL. After incubating at room temperature for 60 min, the reaction was terminated by adding 45 μL of 35 mM EDTA to each sample. The reaction mixture was analyzed on the Caliper LABCHIP® 3000 (Caliper, Hopkinton, Mass.) by electrophoretic separation of the fluorescent substrate and phosphorylated product. […] Compounds were dissolved at 10 mM in DMSO and evaluated at eleven concentrations.

[1] = Homo sapiens, Ramos, Table 4, Comparative Example, read-out: Comparative Example Ramos IC50
[2] = Table 4, Comparative Example, read-out: Comparative Example Btk IC50
[3] = Homo sapiens, Ramos, Table 4, read-out: Example Ramos IC50
[4] = Ramos, Table 3, calcium flux, goat anti-human IgM 2.5 μg/mL, read-out: Ramos IC50 value
[5] = Table 3, ATP 20 μM, 60 min room temperature, read-out: Btk IC50 value
[6] = Table 4, read-out: Example Btk IC50
[7] = Homo sapiens, Ramos, Table 3, calcium flux, goat anti-human IgM 2.5 μg/mL, read-out: Ramos IC50 value

| Structure (SMILES) | pIC50 (Ramos RA1 B cells; [1]) | pIC50 (Ramos RA1 B cells; [4]) | pIC50 (human recombinant Btk; [5]) | other results |
| --- | --- | --- | --- | --- |
| C=CC(=O)N1CCc2c(cccc2-c2c(F)cc(C(N)=O)c3[nH]c4c(c23)CC(F)(F)CC4)C1 (single isomer, unassigned) [Comparative Example 16, 5-(2-Acryloyl-1,2,3,4-tetrahydroisoquinolin-5-yl)-3,3,6-trifluoro-2,3,4,9-tetrahydro-1H-carbazole-8-carboxamide] | < 6.52 |  |  | pIC50 (human recombinant Btk; [2]): 8.35 |
| C=CC(=O)N1CCCOc2c(-c3c(F)cc(C(N)=O)c4[nH]c5cc(C(F)(F)F)ccc5c34)cccc21 (single isomer, unassigned) [Example 12, 4-(5-Acryloyl-2,3,4,5-tetrahydrobenzo[b][1,4]oxazepin-9-yl)-3-fluoro-7-(trifluoromethyl)-9H-carbazole-1-carboxamide] |  | 8.21 | 9.43 | Potency Difference Ramos: ratio of IC50 value for the Comparative Example to that for the corresponding Example (Ramos RA1 B cells): 48; pIC50 (Ramos RA1 B cells; [3]): 8.21; Potency Difference Btk: ratio of IC50 value for the Comparative Example to that for the corresponding Example (human recombinant Btk): 26; pIC50 (human recombinant Btk; [6]): 9.43 |
| C=CC(=O)N1CCc2c(cccc2-c2c(F)cc(C(N)=O)c3[nH]c4ccccc4c23)C1 (single isomer, unassigned) [Comparative Example 15, 4-(2-Acryloyl-1,2,3,4-tetrahydroisoquinolin-5-yl)-3-fluoro-9H-carbazole-1-carboxamide] | 7.14 |  |  | pIC50 (human recombinant Btk; [2]): 8.40 |
| C=CC(=O)N1CCSc2c(-c3c(F)cc(C(N)=O)c4[nH]c5ccccc5c34)cccc21 (racemic) [Example 13, (RS)-4-(4-acryloyl-3,4-dihydro-2H-benzo[b][1,4]thiazin-8-yl)-3-fluoro-9H-carbazole-1-carboxamide] |  | 8.04 | 9.89 |  |
| N#CN1CCc2c(cccc2-c2c(F)cc(C(N)=O)c3[nH]c4cc(CCO)ccc4c23)C1 (racemic) [Example 27, 4-(2-cyano-1,2,3,4-tetrahydroisoquinolin-5-yl)-3-fluoro-7-(2-hydroxyethyl)-9H-carbazole-1-carboxamide] |  | 6.85 | 8.32 |  |
| C=CC(=O)N1CCc2c(cccc2-c2c(F)cc(C(N)=O)c3[nH]c4c(c23)CCC(C(F)(F)F)C4)C1 (single isomer, unassigned) [Example 11, 5-(2-Acryloyl-1,2,3,4-tetrahydroisoquinolin-5-yl)-6-fluoro-2-(trifluoromethyl)-2,3,4,9-tetrahydro-1H-carbazole-8-carboxamide] |  |  |  | pIC50 (Ramos RA1 B cells; Table 3, calcium flux, goat anti-human IgM 2.5 μg/mL, read-out: Ramos IC50 value): 7.79; pIC50 (Ramos RA1 B cells; Table 4, read-out: Example Ramos IC50): 7.80 |
| C=CC(=O)N1CCSc2c(-c3c(F)cc(C(N)=O)c4[nH]c5ccccc5c34)cccc21 (single isomer, unassigned) [Comparative Example 23, 4-(4-Acryloyl-3,4-dihydro-2H-benzo[b][1,4]thiazin-8-yl)-3-fluoro-9H-carbazole-1-carboxamide] | 6.82 |  |  | pIC50 (human recombinant Btk; [2]): 8.36 |
| C=CC(=O)N1CCc2c(cccc2-c2c(F)cc(C(N)=O)c3[nH]c4cc(CCO)ccc4c23)C1 (racemic) [Example 25, 4-(2-acryloyl-1,2,3,4-tetrahydroisoquinolin-5-yl)-3-fluoro-7-(2-hydroxyethyl)-9H-carbazole-1-carboxamide] |  | 7.55 | 8.82 |  |
| C=CC(=O)N1CCc2c(cccc2-c2c(F)cc(C(N)=O)c3[nH]c4c(c23)CC(F)(F)CC4)C1 (single isomer, unassigned) [Example 6, 5-(2-Acryloyl-1,2,3,4-tetrahydroisoquinolin-5-yl)-3,3,6-trifluoro-2,3,4,9-tetrahydro-1H-carbazole-8-carboxamide] |  | 7.64 | 9.92 | Potency Difference Ramos: ratio of IC50 value for the Comparative Example to that for the corresponding Example (Ramos RA1 B cells): >13; pIC50 (Ramos RA1 B cells; [3]): 7.64; Potency Difference Btk: ratio of IC50 value for the Comparative Example to that for the corresponding Example (human recombinant Btk): 38; pIC50 (human recombinant Btk; [6]): 9.92 |
| C=CC(=O)N1CCOc2c(-c3c(F)cc(C(N)=O)c4[nH]c5ccccc5c34)cccc21 (racemic) [Example 3, (RS)-4-(4-acryloyl-3,4-dihydro-2H-benzo[b][1,4]oxazin-8-yl)-3-fluoro-9H-carbazole-1-carboxamide] |  | 8.34 | 10.12 |  |
| C=CC(=O)N1CCc2c(cccc2-c2c(F)cc(C(N)=O)c3[nH]c4ccncc4c23)C1 (racemic) [Example 31, 9-(2-acryloyl-1,2,3,4-tetrahydroisoquinolin-5-yl)-8-fluoro-5H-pyrido[4,3-b]indole-6-carboxamide] |  | 7.89 | 9.52 |  |
| C=CC(=O)N1CCc2c(cccc2-c2c(F)cc(C(N)=O)c3[nH]c4ccccc4c23)C1 (single isomer, unassigned) [Example 5, 4-(2-Acryloyl-1,2,3,4-tetrahydroisoquinolin-5-yl)-3-fluoro-9H-carbazole-1-carboxamide] |  | 8.62 | 10.17 | Potency Difference Ramos: ratio of IC50 value for the Comparative Example to that for the corresponding Example (Ramos RA1 B cells): 30; pIC50 (Ramos RA1 B cells; [3]): 8.62; Potency Difference Btk: ratio of IC50 value for the Comparative Example to that for the corresponding Example (human recombinant Btk): 60; pIC50 (human recombinant Btk; [6]): 10.17 |
| C=CC(=O)N1CCc2c(cccc2-c2c(Cl)cc(C(N)=O)c3[nH]c4ccccc4c23)C1 (single isomer, unassigned) [Example 24] |  |  |  | pIC50 (Ramos RA1 B cells; [7]): 8.52 |
| C=CC(=O)N1CCc2c(cccc2-c2c(Cl)cc(C(N)=O)c3[nH]c4ccccc4c23)C1 [Example 30] |  |  |  | pIC50 (Ramos RA1 B cells; [7]): 7.70 |
| C=CC(=O)N1CCCOc2c(-c3c(F)cc(C(N)=O)c4[nH]c5cc(C(F)(F)F)ccc5c34)cccc21 (single isomer, unassigned) [Comparative Example 22, 4-(5-Acryloyl-2,3,4,5-tetrahydrobenzo[b][1,4]oxazepin-9-yl)-3-fluoro-7-(trifluoromethyl)-9H-carbazole-1-carboxamide] | 6.52 |  |  | pIC50 (human recombinant Btk; [2]): 8.02 |
| C=CC(=O)N1CCc2c(cccc2-c2c(F)cc(C(N)=O)c3[nH]c4c(c23)CCC(C(F)(F)F)C4)C1 (single isomer, unassigned) [Example 10, 5-(2-Acryloyl-1,2,3,4-tetrahydroisoquinolin-5-yl)-6-fluoro-2-(trifluoromethyl)-2,3,4,9-tetrahydro-1H-carbazole-8-carboxamide] |  |  |  | pIC50 (Ramos RA1 B cells; [7]): 7.65; pIC50 (Ramos RA1 B cells; [3]): 7.66 |
| C=CC(=O)N1CCc2c(cccc2-c2c(Cl)cc(C(N)=O)c3[nH]c4c(c23)CNCC4)C1 (racemic) [Example 33, 9-(2-acryloyl-1,2,3,4-tetrahydroisoquinolin-5-yl)-8-chloro-2,3,4,5-tetrahydro-1H-pyrido[4,3-b]indole-6-carboxamide] |  |  | 8.64 |  |
| C=CC(=O)N1CCc2c(cccc2-c2c(F)cc(C(N)=O)c3[nH]c4ccc(Cl)cc4c23)C1 (racemic) [Example 29, 4-(2-acryloyl-1,2,3,4-tetrahydroisoquinolin-5-yl)-6-chloro-3-fluoro-9H-carbazole-1-carboxamide] |  | 6.97 | 9.59 |  |
| C=CC(=O)N1CCc2c(cccc2-c2c(F)cc(C(N)=O)c3[nH]c4cc(C(F)(F)F)ccc4c23)C1 (single isomer, unassigned) [Comparative Example 17, 4-(2-Acryloyl-1,2,3,4-tetrahydroisoquinolin-5-yl)-3-fluoro-7-(trifluoromethyl)-9H-carbazole-1-carboxamide] | < 6.52 |  |  | pIC50 (human recombinant Btk; [2]): 7.85 |
| C=CC(=O)N1CCc2c(cccc2-c2c(F)cc(C(N)=O)c3[nH]c4c(c23)CCC(C(F)(F)F)C4)C1 (single isomer, unassigned) [Comparative Example 21, 5-(2-Acryloyl-1,2,3,4-tetrahydroisoquinolin-5-yl)-6-fluoro-2-(trifluoromethyl)-2,3,4,9-tetrahydro-1H-carbazole-8-carboxamide] |  |  |  | pIC50 (Ramos RA1 B cells; Table 4, Comparative Example, read-out: Comparative Example Ramos IC50): < 6.52 |
| C=CC(=O)N1CCc2c(cccc2-c2c(F)cc(C(N)=O)c3[nH]c4c(c23)CC[C@H](C(C)(C)O)C4)C1 (single isomer, unassigned) [Example 9] |  |  |  | pIC50 (Ramos RA1 B cells; [7]): 8.64; pIC50 (Ramos RA1 B cells; [3]): 8.64 |
| C=CC(=O)N1CCc2c(cccc2-c2c(F)cc(C(N)=O)c3[nH]c4c(c23)CC[C@H](C(C)(C)O)C4)C1 (single isomer, unassigned) [Comparative Example 19] | < 6.52 |  |  |  |
| C=CC(=O)N1CCc2c(cccc2-c2c(F)cc(C(N)=O)c3[nH]c4c(c23)CCC(C(F)(F)F)C4)C1 (single isomer, unassigned) [Comparative Example 20, 5-(2-Acryloyl-1,2,3,4-tetrahydroisoquinolin-5-yl)-6-fluoro-2-(trifluoromethyl)-2,3,4,9-tetrahydro-1H-carbazole-8-carboxamide] | < 6.52 |  |  |  |
